Structures are written as SMILES.

T1 sequence (O60674 808-1132): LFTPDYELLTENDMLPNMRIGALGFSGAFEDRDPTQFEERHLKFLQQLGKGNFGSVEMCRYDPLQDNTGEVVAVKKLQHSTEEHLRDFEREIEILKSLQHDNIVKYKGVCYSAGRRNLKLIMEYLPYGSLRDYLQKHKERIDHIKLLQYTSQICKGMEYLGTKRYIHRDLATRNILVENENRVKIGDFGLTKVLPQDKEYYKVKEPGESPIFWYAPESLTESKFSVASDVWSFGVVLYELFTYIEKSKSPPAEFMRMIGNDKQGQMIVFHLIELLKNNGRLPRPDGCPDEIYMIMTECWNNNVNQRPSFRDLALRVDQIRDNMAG

The assay concerns the target T1, GST-JAK2(808-1132) (Homo sapiens, UniProt O60674).
T1 construct: GST-JAK2(808-1132) is purchased from Invitrogen; purchased Invitrogen (Carlsbad, USA) #4288
In words: EPK JAK/TYK-kinase family profiling assay (Caliper mobility shift), JAK2. The assay is classed as biochemical. The settings on record: Caliper mobility shift assay of Example 187, 20 μM ATP, read-out: IC50 with Test in present Example. From the text:
All four kinases of the JAK/TYK-kinase family are used as purified recombinant GST-fusion proteins, containing the active kinase domains. GST-JAK1(866-1154), GST-JAK3(811-1124), and GST-TYK2(888-1187) are expressed and purified by affinity chromatography. GST-JAK2(808-1132) is purchased from Invitrogen (Carlsbad, USA, #4288).
The kinase assays are based on the Caliper mobility shift assay using the LabChip 3000 systems. This technology is similar to capillary electrophoresis and uses charge driven separation of substrate and product in a microfluidic chip.
All kinase reactions are performed in 384 well microtiter plates in a total reaction volume of 18 μl. The assay plates are prepared with 0.1 μl per well of test compound in the appropriate test concentration, as described under the section “preparation of compound dilutions”. The reactions are started by combining 9 μl of substrate mix (consisting of peptide and ATP) with 9 μl of kinase dilution. The reactions are incubated for 60 minutes at 30° C. and stopped by adding 70 μl of stop buffer (100 mM Hepes, 5% DMSO, 0.1% Coating reagent, 10 mM EDTA, 0.015% Brij 35).
Fluorescently labeled synthetic peptides are used as substrates in all reactions. […] Specific assay conditions are described in Table 1:
The terminated reactions are transferred to a Caliper LabChip 3000 reader (Caliper Life Sciences, Mountain View, Calif., USA) and the turnover of each reaction is measured by determining the substrate/product ratio.
Test compounds are dissolved in DMSO (10 mM) and transferred into 1.4 mL flat bottom or V-shaped Matrix tubes carrying a unique 2D matrix chip by individual compound hubs. The numbers of these chips are distinctively linked to the individual compound identification numbers. The stock solutions are stored at −20° C. if not used immediately. For the test procedure the vials are defrosted and identified by a scanner whereby a working sheet is generated that guides the subsequent working steps.
Compound dilutions are made in 96 well plates. This format enabled the assay of maximally 40 individual test compounds at 8 concentrations (single points) including 4 reference compounds. The dilution protocol includes the production of pre-dilution plates, master plates and assay plates:
Pre-dilution plates: 96 polypropylene well plates are used as pre-dilution plates. A total of 4 pre-dilution plates are prepared including 10 test compounds each on the plate positions A1-A10, one standard compound at A11 and one DMSO control at A12. All dilution steps are done on a Hamilton STAR robot (Hamilton, Co., Reno, Nev., USA).
Master plates: 100 μL of individual compound dilutions including standard compound and controls of the 4 “pre-dilution plates” are transferred into a 384 “master plate” including the following concentrations 1,820, […], 182, 54.6, 18.2, 5.46, 1.82 and 0.546 μM, respectively in 90% of DMSO.
Assay plates: Identical assay plates are then prepared by pipetting 100 nL each of compound dilutions of the master plates into 384-well “assay plates”. In the following the compounds are mixed with 9 μL of assays components plus 9 μL enzyme corresponding to a 1:181 dilution steps enabling the final concentration of 10, 3.0, 1.0, 0.3, 0.1, 0.03, 0.01 and 0.003 μM, respectively. The preparation of the master plates are handled by the Matrix PlateMate Plus robot (Thermo Fisher Scientific, Handforth, Cheshire, United Kingdom) and replication of assay plates by the HummingBird robot (Genomic Solutions, Inc., Ann Arbor, Mich., USA).
With `CCN1CCN(c2ccc(Nc3nc4cccc(-c5cc(F)c(C(=O)N6CCOCC6)c(F)c5)c4o3)cc2C)CC1` [Example 109, (4-{2-[4-(4-Ethyl-piperazin-1-yl)-3-methyl-phenylamino]-benzooxazol-7-yl}-2,6-difluoro-phenyl)-morpholin-4-yl-methanone], the 50% inhibitory concentration (IC50) came to 0.011 µM.
Consider `Cc1cc(-c2cccc3nc(Nc4ccc(C(=O)N5CCCC5)c(C)c4)oc23)ccc1CN1CCOCC1` [Example 110, {2-Methyl-4-[7-(3-methyl-4-morpholin-4-ylmethyl-phenyl)-benzooxazol-2-ylamino]-phenyl}-pyrrolidin-1-yl-methanone], for which the concentration for half-maximal inhibition (IC50) was 0.088 µM.
`CCN1CCN(c2ccc(Nc3nc4cccc(-c5ccc(C(C)(C)C(=O)N6CCOCC6)cc5)c4o3)cc2C)CC1` [Example 111, 2-(4-{2-[4-(4-Ethyl-piperazin-1-yl)-3-methyl-phenylamino]-benzooxazol-7-yl}-phenyl)-2-methyl-1-morpholin-4-yl-propan-1-one]: the IC50 came to 0.0165 µM.
Under `CCN1CCN(c2ccc(Nc3nc4cccc(-c5ccc(S(N)(=O)=O)cc5)c4o3)cc2C)CC1` [Example 112, 4-{2-[4-(4-Ethyl-piperazin-1-yl)-3-methyl-phenylamino]-benzooxazol-7-yl}-benzenesulfonamide] stands 0.0175 µM; under `CS(=O)(=O)c1ccc(-c2cccc3nc(Nc4ccc(N5CCN(C6CC6)CC5)cc4)oc23)cc1` [Example 113, [4-(4-Cyclopropyl-piperazin-1-yl)-phenyl]-[7-(4-methanesulfonyl-phenyl)-benzooxazol-2-yl]-amine], 0.27 µM; under `O=S1(=O)CCN(Cc2c(F)cc(-c3cccc4nc(Nc5ccc(N6CCN(C7CC7)CC6)cc5)oc34)cc2F)CC1` [Example 114, [4-(4-Cyclopropyl-piperazin-1-yl)-phenyl]-{7-[4-(1,1-dioxo-1lambda*6*-thiomorpholin-4-ylmethyl)-3,5-difluoro-phenyl]-benzooxazol-2-yl}-amine], 0.0141 µM.
For `COCCN1CCN(c2ccc(Nc3nc4cccc(-c5ccc(S(C)(=O)=O)cc5)c4o3)cc2C)CC1` [Example 115, [7-(4-Methanesulfonyl-phenyl)-benzooxazol-2-yl]-{4-[4-(2-methoxy-ethyl)-piperazin-1-yl]-3-methyl-phenyl}-amine], the IC50 amounted to 0.039 µM.
Consider `CCN1CCN(c2ccc(Nc3nc4cccc(-c5ccc(C(=O)N6CCS(=O)(=O)CC6)cc5)c4o3)cc2C)CC1` [Example 116, (1,1-Dioxo-1lambda*6*-thiomorpholin-4-yl)-(4-{2-[4-(4-ethyl-piperazin-1-yl)-3-methyl-phenylamino]-benzooxazol-7-yl}-phenyl)-methanone], for which the half-maximal inhibitory concentration (IC50) amounted to 0.015 µM.
In the case of `CCN(CC)C(=O)c1ccc(Nc2nc3cccc(-c4cc(F)c(CN5CCN(C(C)=O)CC5)c(F)c4)c3o2)cc1C` [Example 117, 4-{7-[4-(4-Acetyl-piperazin-1-ylmethyl)-3,5-difluoro-phenyl]-benzooxazol-2-ylamino}-N,N-diethyl-2-methyl-benzamide], the concentration for half-maximal inhibition (IC50) turned out to be 0.0295 µM.
As to `CCN(CC)C(=O)c1ccc(Nc2nc3cccc(-c4cc(F)c(CN5CCNCC5)c(F)c4)c3o2)cc1C` [Example 118, 4-[7-(3,5-Difluoro-4-piperazin-1-ylmethyl-phenyl)-benzooxazol-2-ylamino]-N,N-diethyl-2-methyl-benzamide], the IC50 was 0.043 µM.
As for `CCN1CCN(Cc2ccc(Nc3nc4cccc(-c5ccc(C(=O)N6CCOCC6)c(F)c5)c4o3)cc2C)CC1` [Example 119, (4-{2-[4-(4-Ethyl-piperazin-1-ylmethyl)-3-methyl-phenylamino]-benzooxazol-7-yl}-2-fluoro-phenyl)-morpholin-4-yl-methanone], the half-maximal inhibitory concentration (IC50) stood at 0.0195 µM.
Turning to `CNC(=O)c1ccc(Nc2nc3cccc(-c4cc(F)c(CN5CCOCC5)c(F)c4)c3o2)cc1C` [Example 120, 4-[7-(3,5-Difluoro-4-morpholin-4-ylmethyl-phenyl)-benzooxazol-2-ylamino]-2,N-dimethyl-benzamide], the IC50 was found to be 0.039 µM.
Consider `Cc1cc(Nc2nc3cccc(-c4cc(F)c(CN5CCOCC5)c(F)c4)c3o2)ccc1N1CCN(CCC(F)(F)F)CC1` [Example 121], for which the 50% inhibitory concentration (IC50) is 0.21 µM.
Under `Cc1cc(Nc2nc3cccc(-c4cc(F)c(CN5CCOCC5)c(F)c4)c3o2)ccc1C(=O)NCCN(C)C` [Example 122, 4-[7-(3,5-Difluoro-4-morpholin-4-ylmethyl-phenyl)-benzooxazol-2-ylamino]-N-(2-dimethylamino-ethyl)-2-methyl-benzamide] stands 0.0111 µM.
Under `CCN(CC)C(=O)c1ccc(Nc2nc3cccc(-c4ccc(CC(=O)N5CCS(=O)(=O)CC5)cc4)c3o2)cc1OC` [Example 123, 4-(7-{4-[2-(1,1-Dioxo-1lambda*6*-thiomorpholin-4-yl)-2-oxo-ethyl]-phenyl}-benzooxazol-2-ylamino)-N,N-diethyl-2-methoxy-benzamide] stands 0.0054 µM; under `CS(=O)(=O)c1ccc(Nc2nc3cccc(-c4ccc(CC(=O)N5CCOCC5)cc4)c3o2)cc1` [Example 124, 2-{4-[2-(4-Methanesulfonyl-phenylamino)-benzooxazol-7-yl]-phenyl}-1-morpholin-4-yl-ethanone], 0.0052 µM; under `O=C1CCCN1c1ccc(Nc2nc3cccc(-c4cc(F)c(CN5CCS(=O)(=O)CC5)c(F)c4)c3o2)cc1` [Example 125, 1-(4-{7-[4-(1,1-Dioxo-1lambda*6*-thiomorpholin-4-ylmethyl)-3,5-difluoro-phenyl]-benzooxazol-2-ylamino}-phenyl)-pyrrolidin-2-one], 0.0705 µM.
As for `O=C1CCCN1c1ccc(Nc2nc3cccc(-c4cc(F)c(CN5CCOCC5)c(F)c4)c3o2)cc1` [Example 126, 1-{4-[7-(3,5-Difluoro-4-morpholin-4-ylmethyl-phenyl)-benzooxazol-2-ylamino]-phenyl}-pyrrolidin-2-one], the half-inhibitory concentration (IC50) was found to be 0.165 µM.
On to `COc1ccc(Nc2nc3cccc(-c4ccc(C(=O)N5CCOCC5)c(C)c4)c3o2)cc1N1CCN(C)CC1` [Example 127, (4-{2-[4-Methoxy-3-(4-methyl-piperazin-1-yl)-phenylamino]-benzooxazol-7-yl}-2-methyl-phenyl)-morpholin-4-yl-methanone], for which the half-inhibitory concentration (IC50) was 0.03 µM.
Regarding `CN1CCN(c2cccc(Nc3nc4cccc(-c5cc(F)c(CN6CCS(=O)(=O)CC6)c(F)c5)c4o3)c2)CC1` [Example 128, {7-[4-(1,1-Dioxo-1lambda*6*-thiomorpholin-4-ylmethyl)-3,5-difluoro-phenyl]-benzooxazol-2-yl}-[3-(4-methyl-piperazin-1-yl)-phenyl]-amine], the concentration for half-maximal inhibition (IC50) was found to be 0.019 µM.
Turning to `Cc1cc(-c2cccc3nc(Nc4cccc(N5CCN(C)CC5)c4)oc23)ccc1C(=O)N1CCOCC1` [Example 129, (2-Methyl-4-{2-[3-(4-methyl-piperazin-1-yl)-phenylamino]-benzooxazol-7-yl}-phenyl)-morpholin-4-yl-methanone], the IC50 was 0.045 µM.
Regarding `COc1ccc(Nc2nc3cccc(-c4cc(F)c(CN5CCS(=O)(=O)CC5)c(F)c4)c3o2)cc1N1CCN(C)CC1` [Example 130, {7-[4-(1,1-Dioxo-1lambda*6*-thiomorpholin-4-ylmethyl)-3,5-difluoro-phenyl]-benzooxazol-2-yl}-[4-methoxy-3-(4-methyl-piperazin-1-yl)-phenyl]-amine], the 50% inhibitory concentration (IC50) came out at 0.00655 µM.
As for `Cc1cc(Nc2nc3cccc(-c4ccc(C(=O)N5CCOCC5)c(F)c4)c3o2)ccc1CN1CCOCC1` [Example 131, {2-Fluoro-4-[2-(3-methyl-4-morpholin-4-ylmethyl-phenylamino)-benzooxazol-7-yl]-phenyl}-morpholin-4-yl-methanone], the half-inhibitory concentration (IC50) was 0.0195 µM.
For `CC(=O)NC1Cc2ccc(Nc3nc4cccc(-c5ccc(CN6CCOCC6)c(F)c5)c4o3)cc2C1` (stereo not drawn) [Example 132, N-{5-[7-(3-Fluoro-4-morpholin-4-ylmethyl-phenyl)-benzooxazol-2-ylamino]-indan-2-yl}-acetamide], the half-maximal inhibitory concentration (IC50) turned out to be 0.021 µM.

The values above are taken from patent US8629168B2, “Benzoxazoles and oxazolopyridines being useful as janus kinases inhibitors” (priority 2006, dated 2014).
